Assay results reported in patent US20110003773A1, “USING FULLERENES TO ENHANCE AND STIMULATE HAIR GROWTH” (Luna Innovations Incorporated, priority 2008, published 2011).

Test system: shaved C57/B6 mice
Assay: Hair growth in shaved C57/B6 mice after injection at the shaved site
Assay type: in vivo
Conditions: 300 μl of 1 μg/ml in PBS injected at the shaved site every day for 12 days, vs PBS
Description: The backs of C57/B6 mice were shaved bald on the intracapsular part of the back. 300 μl of phosphate buffered saline (PBS) or 300 μl of 1 μg/ml of compound 5 (labelled LnW0033 in FIG. 2) in PBS was injected at the shaved site every day for 12 days.
The backs of C57/B6 mice were shaved bald on the intracapsular part of the back. 300 μl PBS or 300 μl of 1 μg/ml Polyhydroxy-C60 (C60(OH)˜18-24; BuckyUSA, Houston, Tex.; called “Poly C60” in FIG. 3) in PBS was injected at the shaved site every day for 12 days.

## Polyhydroxy-C60
  hair growth (photograph at day 12) compared to control: hair growth enhancement
